According to PubChem BioAssay AID192 (DTP/NCI, 2004):
Toxic doses and inconclusive results are not listed.

Test system: BDF1 mice, B16 melanoma ip, median survival T/C
Experiment: NCI In Vivo Anticancer Drug Screen. Data for tumor model B16 Melanoma (intraperitoneal) in B6D2F1 (BDF1) mice
Settings: endpoint: median survival time, higher = longer survival
How it was run: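 Read-out: survival or tumor size, given as treated/control ratio. Controls received vehicle only; animals bore transplantable tumors.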

[1] = dose: 100.0 mg/kg/injection, schedule: Q04DX003 (ip), vehicle: saline with Tween-80
[2] = dose: 200.0 mg/kg/injection, schedule: Q04DX003 (ip), vehicle: saline with Tween-80
[3] = dose: 25.0 mg/kg/injection, schedule: Q01DX009 (ip), vehicle: Klucel (hydroxypropylcellulose) (HPC)

O=c1[nH]c(=O)n2n1CC(Br)C(Br)C2 (stereo not given)
T/C [1]: 97 % of control
T/C [2]: 102 % of control
T/C (dose: 400.0 mg/kg/injection, schedule: Q04DX003 (ip), vehicle: saline with Tween-80): 110 % of control

CCOC(=O)C1CCCN(S(=O)(=O)c2ccc(C)cc2)c2ccccc2C1=O (stereo not given)
T/C (dose: 100.0 mg/kg/injection, schedule: Q04DX003 (ip), vehicle: Klucel (hydroxypropylcellulose) (HPC)): 96 % of control
T/C (dose: 200.0 mg/kg/injection, schedule: Q04DX003 (ip), vehicle: Klucel (hydroxypropylcellulose) (HPC)): 88 % of control
T/C (dose: 400.0 mg/kg/injection, schedule: Q04DX003 (ip), vehicle: Klucel (hydroxypropylcellulose) (HPC)): 95 % of control

COc1cc2cc(c1Cl)N(C)C(=O)C[C@H](OC(=O)[C@H](C)N(C)C(C)=O)[C@]1(C)O[C@H]1[C@H](C)[C@@H]1C[C@@](O)(NC(=O)O1)[C@H](OC)C=C/C=C(\C)C2
T/C (dose: 0.5 micrograms/kg/injection, schedule: Q01DX009 (ip), vehicle: saline): 110 % of control
T/C (dose: 1.0 micrograms/kg/injection, schedule: Q01DX009 (ip), vehicle: saline + alcohol): 163 % of control
T/C (dose: 2.0 micrograms/kg/injection, schedule: Q01DX009 (ip), vehicle: saline): 117 % of control
T/C (dose: 2.0 micrograms/kg/injection, schedule: Q04DX003 (ip), vehicle: saline): 95 % of control
T/C (dose: 4.0 micrograms/kg/injection, schedule: Q01DX009 (ip), vehicle: saline): 105 % of control
T/C (dose: 4.0 micrograms/kg/injection, schedule: Q04DX003 (ip), vehicle: saline): 100 % of control
T/C (dose: 8.0 micrograms/kg/injection, schedule: Q01DX009 (ip), vehicle: saline): 155 % of control
T/C (dose: 8.0 micrograms/kg/injection, schedule: Q04DX003 (ip), vehicle: saline): 97 % of control
T/C (dose: 16.0 micrograms/kg/injection, schedule: Q01DX009 (ip), vehicle: saline): 157 % of control
T/C (dose: 16.0 micrograms/kg/injection, schedule: Q04DX003 (ip), vehicle: saline): 108 % of control
T/C (dose: 32.0 micrograms/kg/injection, schedule: Q01DX009 (ip), vehicle: saline): 97 % of control
T/C (dose: 32.0 micrograms/kg/injection, schedule: Q04DX003 (ip), vehicle: saline): 100 % of control

Cc1ccc(NCCN(C)C)c2c(=O)c3cc(O)ccc3sc12
T/C (dose: 3.0 mg/kg/injection, schedule: Q01DX009 (ip), vehicle: Klucel (hydroxypropylcellulose) (HPC)): 119 % of control
T/C (dose: 12.0 mg/kg/injection, schedule: Q01DX009 (ip), vehicle: Klucel (hydroxypropylcellulose) (HPC)): 157 % of control
T/C (dose: 24.0 mg/kg/injection, schedule: Q01DX009 (ip), vehicle: Klucel (hydroxypropylcellulose) (HPC)): 160 % of control
T/C [3]: 162 % of control

OCC(F)(F)C(F)(F)C(F)(F)F
T/C (dose: 75.0 mg/kg/injection, schedule: Q01DX009 (ip), vehicle: saline): 105 % of control
T/C (dose: 150.0 mg/kg/injection, schedule: Q01DX009 (ip), vehicle: saline): 106 % of control
T/C (dose: 300.0 mg/kg/injection, schedule: Q01DX009 (ip), vehicle: saline): 100 % of control

CC(=O)Nc1cc2c(cc1[N+](=O)[O-])-c1ccccc1C2O (stereo not given)
T/C (dose: 50.0 mg/kg/injection, schedule: Q04DX003 (ip), vehicle: saline with Tween-80): 105 % of control
T/C [1]: 110 % of control
T/C [2]: 105 % of control

CC(C)NNC(=O)C(N)CO (stereo not given)
T/C (dose: 25.0 mg/kg/injection, schedule: Q01DX009 (ip), vehicle: saline): 104 % of control
T/C (dose: 50.0 mg/kg/injection, schedule: Q01DX009 (ip), vehicle: saline): 116 % of control
T/C (dose: 100.0 mg/kg/injection, schedule: Q01DX009 (ip), vehicle: saline): 104 % of control
T/C (dose: 200.0 mg/kg/injection, schedule: Q01DX009 (ip), vehicle: saline): 111 % of control

CC(=O)OCC(COC(C)=O)(COC(C)=O)COC(C)=O
T/C (dose: 100.0 mg/kg/injection, schedule: Q01DX009 (ip), vehicle: saline with Tween-80): 105 % of control
T/C (dose: 200.0 mg/kg/injection, schedule: Q01DX009 (ip), vehicle: saline with Tween-80): 105 % of control
T/C (dose: 400.0 mg/kg/injection, schedule: Q01DX009 (ip), vehicle: saline with Tween-80): 100 % of control

NC1=CC(=O)c2ccccc2C1=O
T/C (dose: 12.5 mg/kg/injection, schedule: Q01DX009 (ip), vehicle: Klucel (hydroxypropylcellulose) (HPC)): 96 % of control
T/C [3]: 99 % of control
T/C (dose: 50.0 mg/kg/injection, schedule: Q01DX009 (ip), vehicle: Klucel (hydroxypropylcellulose) (HPC)): 101 % of control

CCCCc1c(OC)cc(O)c2c1C(=O)c1[nH]c(C(=O)O)c(O)c(=O)c1C2=O
T/C (dose: 7.5 mg/kg/injection, schedule: Q01DX009 (ip), vehicle: Klucel (hydroxypropylcellulose) (HPC)): 96 % of control
T/C (dose: 15.0 mg/kg/injection, schedule: Q01DX009 (ip), vehicle: Klucel (hydroxypropylcellulose) (HPC)): 96 % of control
